pIC50: −log10 of the molar value.
tested on: arteria saphena rings; assay: Vasorelaxant effect in vitro (phenylephrine-contracted rabbit arteria saphena rings); format: cell-based, Rabbits; conditions: Oryctolagus cuniculus, contraction by phenylephrine, 37° C., 0.1% DMSO, read-out: IC50, concentration necessary to reduce the height of the contraction control value by 50%
Protocol: Vasorelaxant Effect in vitro
Rabbits are anesthetized or killed by intravenous injection of thiopental sodium (about 50 mg/kg) and exsanguinated. The arteria saphena is removed and divided into rings 3 mm wide. The individual rings are in each case mounted on a pair of hooks of triangular shape, open at the ends and made of special wire (Remanium®) having a diameter of 0.3 mm. Under pretension, each ring is introduced into a 5 ml organ bath containing carbogen-gassed Krebs-Henseleit solution at 37° C. with the following composition (mM): NaCl: […]; KCl: 4.8; CaCl2×2H2O: 1; MgSO4×7H2O: 1.4; KH2PO4: 1.2; NaHCO3: 25; glucose: 10; bovine serum albumin: 0.001%. The force of contraction is detected with Statham UC2 cells, amplified and digitized via A/D converters (DAS-1802 HC, Keithley Instruments, Munich) and recorded in parallel on chart recorders. Contractions are generated by adding phenylephrine.
After several (generally 4) control cycles, the substance to be investigated is added in each further run in increasing dosage, and the height of the contraction reached under the influence of the test substance is compared with the height of the contraction reached in the last preceding run. The concentration necessary to reduce the height of the control value by 50% (IC50) is calculated from this. The standard application volume is 5 μl. The DMSO content in the bath solution corresponds to 0.1%.

pIC50	Compound
9.00	O=C(O)CCCCN(CCc1cc(Cl)ccc1OCc1ccc(-c2ccc(C(F)(F)F)cc2)cc1)Cc1ccc(C(=O)O)cc1 [Example 3]
8.09	O=C(O)CCCCN(CCc1cc(Cl)ccc1OCc1ccc(-c2ccc(Cl)cc2)cc1)Cc1ccc(C(=O)O)cc1 [Example 6]

The next lines start with the compound.

Compound	pIC50
O=C(O)CCCCN(CCc1ccc(F)cc1OCc1ccc(C2CCCCC2)cc1)Cc1ccc(C(=O)O)cc1 [Example 1, 4-{[(4-carboxybutyl)(2-{2-[(4-cyclohexylbenzyl)oxy]-4-fluorophenyl}ethyl)amino]methyl}benzoic acid]	8.96
O=C(O)CCCCN(CCc1cc(F)ccc1OCc1ccc(C2CCCCC2)cc1)Cc1ccc(C(=O)O)cc1 [Example 2]	8.82
COc1ccc(-c2ccc(COc3ccc(Cl)cc3CCN(CCCCC(=O)O)Cc3ccc(C(=O)O)cc3)c(Cl)c2)cc1 [Example 9]	8.08

tested on: not given; assay: not given; conditions: not given

melting point [°C]	Compound
> 250	O=C(O)CCCCN(CCc1ccc(F)cc1OCc1ccc(C2CCCCC2)cc1)Cc1ccc(C(=O)O)cc1 [Example 1, 4-{[(4-carboxybutyl)(2-{2-[(4-cyclohexylbenzyl)oxy]-4-fluorophenyl}ethyl)amino]methyl}benzoic acid]
